Measured values from BindingDB's records for doi:10.1021/acs.jmedchem.0c00262 (University of Leeds, 2020).
Values belong to the molecule of their own block, whether it stands above or below them.

Assays:
[1] = Modulation of GP6 in human platelets reduction in collagen-induced platelet aggregation preincubated for 20 mins followed by collagen stimulation
[2] = Modulation of GP6 in human platelets assessed as reduction in convulxin-induced platelet aggregation
[3] = Inhibition of GP6 in human whole blood assessed as protein-mediated platelet aggregation preincubated for 15 mins followed by collagen stimulation and measured for 10 mins by multiple electrode aggregometry
Platelet glycoprotein VI = biological target: T1, Platelet glycoprotein VI (Homo sapiens, UniProt Q9HCN6); assay: Inhibition of GP6 in human whole blood assessed as protein-mediated platelet aggregation preincubated for 15 mins followed by collagen stimulation and measured for 10 mins by multiple electrode aggregometry
T1 sequence (Q9HCN6 whole entry): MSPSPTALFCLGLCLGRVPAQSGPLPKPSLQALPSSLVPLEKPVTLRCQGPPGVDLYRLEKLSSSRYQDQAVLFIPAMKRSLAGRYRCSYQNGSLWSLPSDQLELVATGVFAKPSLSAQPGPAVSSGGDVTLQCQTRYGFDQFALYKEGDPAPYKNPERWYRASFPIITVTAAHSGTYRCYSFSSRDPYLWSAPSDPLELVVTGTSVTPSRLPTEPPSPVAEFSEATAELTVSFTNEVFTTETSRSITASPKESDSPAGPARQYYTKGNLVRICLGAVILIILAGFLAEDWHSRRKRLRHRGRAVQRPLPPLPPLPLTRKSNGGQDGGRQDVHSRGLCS

[4] = Antagonist activity at GP6 in human platelet assessed as reduction in collagen-induced platelet-aggregation preincubated for 10 mins followed by collagen stimulation by aggregometry
[5] = Antagonist activity at GP6 in human platelet assessed as reduction in CRP-induced platelet-aggregation preincubated for 10 mins followed by collagen stimulation by aggregometry

Compound: C=CC(=O)N1CCC([C@@H]2CCNc3c(C(N)=O)c(-c4ccc(Oc5ccccc5)cc4)nn32)CC1 (single isomer, unassigned) [US9447106, 27b (peak 2)]
- IC50 [3]: 510 nM

Compound: C=CC(=O)N1CCC[C@@H](n2nc(-c3ccc(Oc4ccccc4)cc3)c3c(N)ncnc32)C1 [IBRUTINIB]
- IC50 [3]: 120 nM

Compound: C=CC(=O)N1CCC(CNc2ncnc(N)c2-c2ccc(Oc3ccccc3)cc2)CC1 [US9580449, Example A39]
- IC50 [3]: 5840 nM

Other lines, results leading:

- IC50 [1]: 570 nM
- IC50 [2]: 31 nM
Compound: Cc1cccc(Nc2nc(N[C@@H]3CCCC[C@@H]3N)ncc2C(N)=O)c1

- IC50 (Platelet glycoprotein VI): 1210 nM
Compound: C/C=C/C(=O)N1CCC[C@H]1c1nc(-c2ccc(C(=O)Nc3ccccn3)cc2)c2c(N)nccn12 [ACP-196]

- IC50 [4]: 21 nM
- IC50 [5]: 2 nM
Compound: C=C1C(=O)[C@@]23[C@H](O)C[C@@H]4C(C)(C)C(=O)CC[C@@]4(C)[C@@H]2CC[C@@H]1[C@H]3O [Glaucocalyxin A]

- IC50 [3]: 1200 nM
Compound: CC#CC(=O)N1CC[C@@H](n2c(=O)n(-c3ccc(Oc4ccccc4)cc3)c3c(N)ncnc32)C1 [US9199997, 9]
